Reference: the METLIN SMRT retention time set (Domingo-Almenara et al. 2019)

Experiment: gradient 5% acetonitrile 3 min, to 50% in 2 min, to 85% in 15 min, held 3 min, 100 µL/min
Settings: column: Zorbax Extend-C18 2.1 x 50 mm; eluents: water / acetonitrile, 0.1% formic acid
Method in brief: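 Retention times of pure standards were taken from adduct peaks that were selected by computer and manually inspected. Over 3 months, mixtures of ~100 molecules were run by HPLC–quadrupole time-of-flight mass spectrometry in positive and negative ionization mode. The Zorbax Extend-C18 column (2.1 × 50 mm, 1.8 μm) ran at 100 μL/min in water and acetonitrile, each containing 0.1% formic acid, with 40 μL dead volume and 900 μL dwell volume.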

SMILES | RP-LC retention time [s]
CC(C)c1noc(-c2ccc(-n3cnc(C(=O)NC4CCCC4)c3)nc2)n1 | 915
CNC(=O)[C@@H]1CN(C(=O)CCn2nc(C)cc2C)C[C@H]1c1n[nH]c(C)n1 | 554
CCOC(=O)O[C@]1(C(=O)OCCl)CC[C@H]2[C@@H]3CCC4=CC(=O)C=C[C@]4(C)[C@H]3[C@@H](O)C[C@@]21C | 1150
Cc1ccc(-c2nc(-c3ccc(-c4noc(CNS(=O)(=O)c5ccccc5)n4)cc3)cs2)s1 | 1290
CCOC(=O)c1[nH]c(C)c(CCC(=O)N2CCC(C(=O)NCCc3ccco3)CC2)c1C | 743
COC(=O)c1ccc(CSc2nnc(NC(=O)C3(c4cccs4)CCCC3)s2)o1 | 978
CC(C)C(=O)N1CCc2c(c(C(=O)N3CCC(C(=O)N4CCC5(CC4)OCCO5)CC3)nn2C)C1 | 626
CCOc1ccc(-c2noc(Cn3ccn4nc(-c5ccc(Cl)cc5)cc4c3=O)n2)cc1OC | 1130
N#CSc1ccc(NC(=O)c2ccc(-n3cnnn3)cc2)cc1 | 754
Cc1ccc2nc(C(=O)NCc3cc(F)cc(F)c3)cn2c1 | 695
Cc1nn(-c2ccccc2)c(C)c1CCc1nn2c(-c3cccc(F)c3)nnc2s1 | 934
COc1ccc(-c2csc(C)n2)cc1S(=O)(=O)N(C)c1cccc(C)c1 | 1050
CCCn1ncc(N2CCC(C(=O)N3CCN(CC)CC3)CC2)cc1=O | 567
COc1ccc(Cl)cc1CC1C(=O)Nc2ccccc21 (stereo not drawn) | 921
Oc1ccc2ccc3[nH]cnc3c2c1 | 625
CN(C)c1nc(N)c(C(=O)N=C(N)N)nc1Cl | 661
COc1cc(NC(=O)c2cnc(-c3ccccc3)nc2-c2ccncc2)cc(OC)c1 | 879
CCOC(=O)N1CCN(c2nc(F)c3c(c2F)S(=O)(=O)CCN3C2CCCCC2)CC1 | 1170
O=C(Nc1ccc(F)cc1)OCCOc1ccc([N+](=O)[O-])cc1 | 1030
Cc1c(C(=O)N2CC(C)CC(C)C2)sc2ncn(CC(=O)N3CCC(C)CC3)c(=O)c12 (stereo not drawn) | 891
CCOc1ccc(-c2csc(Cc3nc(-c4ccc5c(c4)OCO5)no3)n2)cc1 | 1200
COc1ccc(N2CC(c3nc(-c4cccc(C(F)(F)F)c4)no3)CC2=O)cc1OC (stereo not drawn) | 966
Cc1ccc(S(=O)(=O)N2C(=O)CCC2C(=O)NC2CCCCC2)cc1C (stereo not drawn) | 916
Cc1nn(C2CCS(=O)(=O)C2)c(C)c1N1CCN(C(=O)C(C)Oc2ccccc2)CC1 (stereo not drawn) | 731

SMILES | RP-LC retention time [s]
CCOC(=O)Cc1sc(Nc2nc(C)cc(C)n2)nc1-c1ccccc1 | 989
Cc1cc(C)cc(-c2nnc(Cc3nc(-c4ccc5c(c4)OCO5)no3)o2)c1 | 1070
COc1ccc(NC(=O)c2c(O)c3cccnc3n(-c3ccccc3)c2=O)cc1OC | 800
CCOc1ccccc1-c1noc(Cn2cnc3c(oc4ccccc43)c2=O)n1 | 914
COc1cc(C)c(C(C)C)cc1S(=O)(=O)NCc1ccco1 | 594
CN(C)CCNCc1ccc(-c2cc(Cl)cc(Cl)c2)o1 | 597
CC(C)CNC(=O)c1cn(-c2cc(-c3nc(C(C)C)no3)ccn2)cn1 | 920
Cc1ccc(-c2nc3cnccn3c2NCCC(=O)NCC(C)C)cc1 | 690
Fc1ccc(C2Cn3cnc(-c4nc(-c5cccs5)no4)c3CO2)cc1 (stereo not drawn) | 1010
O=C(Cc1ccc(NC(=O)C2CCCC2)cc1)NCC(F)(F)F | 727
COc1cc(C(=O)NCC(c2cccs2)N2CCOCC2)cc(OC)c1OC (stereo not drawn) | 607
Fc1ccc(Cl)cc1-c1nc(Nc2ccncc2)c2nccnc2n1 | 648
CCN1C(=O)NC(c2ccc(C)cc2C)C2=C1CN(CCC(=O)N1CCOCC1)C2=O (stereo not drawn) | 614
COc1ccccc1CC(=O)Nc1ccc(-c2nc(Cn3nc(C)cc3C)c(C)o2)cc1 | 924
Clc1ccc(Nc2c(-c3ccc(Cl)cc3)nc3ccc(Cl)cn23)cc1 | 1090
CN1CCCc2cc(C(CNC(=O)C(=O)NC3CCCCC3)N(C)C)ccc21 (stereo not drawn) | 598
CCN1C(=O)c2ccccc2Oc2ccc(C(=O)NCc3ccccc3)cc21 | 912
O=C(NCC1CCN(C(=O)Oc2ccccc2)CC1)Nc1ccc(C(F)(F)F)cc1 | 947
O=C(NCCN1CCCCCC1)C1CCN(c2cnc(N3CCCC3)nc2)CC1 | 569
COCCCNC(=O)c1nc(Nc2ccccc2)c2ccccc2n1 | 664
CCN1CCN(C(=O)C2CCN(S(=O)(=O)c3cc(C(=O)N4CCCC4)n(C)c3)CC2)CC1 | 567
Cc1nc2c(sc3nc(-c4ccccc4)ccc32)c(=O)n1CC(=O)NCc1ccc2c(c1)OCO2 | 985
COc1cccc(-c2nnc(Cc3nc(-c4cccc(C)c4)no3)o2)c1 | 1050

The next lines start with the values.

RP-LC retention time [s] | SMILES
1100 | O=c1c2ccccc2n(Cc2nc(-c3ccc(C(F)(F)F)cc3)no2)c(=O)n1CC1CCCO1 (stereo not drawn)
652 | CCn1cc(CCN2CCN(S(=O)(=O)c3ccc(C)cc3)CC2)c2cccnc21
573 | CN1CCN(CCNC(=O)C2CN(S(=O)(=O)c3ccccc3)CC23CCCCC3)CC1 (stereo not drawn)
967 | Cc1ccc(NC(=O)NC(C)C(=O)N2CCc3ccccc32)c(Cl)c1 (stereo not drawn)
612 | CC1CCCCN1CCNC(=O)Cn1c(=O)c2cccn2c2ccc(F)cc21 (stereo not drawn)
617 | CCC(C(=O)NCCN1CCOCC1)n1c2ccccc2c2cnn(C)c(=O)c21 (stereo not drawn)
600 | Cn1nc2n(c1=O)CCN(Cc1cn[nH]c1-c1ccc(F)cc1)C2
1180 | Cc1sc(-c2cc(C(F)(F)F)[nH]n2)cc1S(=O)(=O)N1CCN(c2ccc(Cl)cc2)CC1
638 | O=C(Cc1ccc(Br)cc1)N1CCN(C(=O)c2cc(-c3cccnc3)n[nH]2)CC1
922 | O=C(Cc1ccccc1F)N1CCC(c2nc(-c3ccccc3)no2)C1 (stereo not drawn)
765 | CCc1ccc(NC(=O)CN2C(=O)NC3(CCCCC3)C2=O)cc1
965 | O=C(NCCN1C(=O)C2(CCCCC2)C1c1ccccc1)Nc1ccccc1F (stereo not drawn)
601 | CCOC(=O)c1cccc(NC(=O)N2CCc3nc[nH]c3C2)c1
601 | COc1ccc(OC)c(Nc2c(C(=O)N3CCCC3)cnc3nc(C)ccc23)c1
766 | CCc1noc(NC(C)=O)c1-c1ccc(OC)c(S(=O)(=O)NCc2ccccc2)c1
1060 | CCc1nc(-c2csc(S(=O)(=O)N3CCC(C(=O)Nc4ccc(C)c(F)c4)CC3)c2)no1
599 | Cc1ccc(C)c(CN2CCC(CNC(=O)C3CCCN(c4cc(=O)n(C)c(=O)n4C)C3)CC2)c1 (stereo not drawn)
905 | CCN(C(=O)C1CCCN(c2ncnc3c2nc2n3CCCCC2)C1)c1cc(C)ccc1C (stereo not drawn)
788 | CCN(C(=O)C1CCN(S(=O)(=O)c2ccc3c(c2)NC(=O)CO3)CC1)c1ccc(OC)cc1
979 | CS(=O)(=O)Nc1ccc(C2(C(=O)NCc3ccc(F)cc3Cl)CCCCC2)cc1
835 | CCN1c2ccc(C)cc2C(=O)NC12CCN(C(=O)c1cccc(F)c1)CC2

RP-LC retention time [s] | SMILES
570 | COCCn1c(C2CCN(C(=O)Cc3ccc(Cl)cc3)C2)nc2ccncc21 (stereo not drawn)
877 | O=C(CCn1nnc2cc(-c3noc(COc4ccc(F)cc4)n3)ccc21)N1CCCC1
894 | Cc1cccc(CNC(=O)c2cccc(C3CCCN(C(=O)NC(C)C)C3)c2)c1 (stereo not drawn)
963 | CC1(C)CC(=O)c2cn(-c3ccccc3)c(=O)c(C(=O)NC3CC3)c2C1
817 | Cc1ccccc1-c1ccc(N2CCCC(C(=O)NC(C)CCc3ccccc3)C2)nn1 (stereo not drawn)
731 | O=C(O)c1cccc2c1CCN2C(=O)c1ccccc1
756 | c1ccc(-c2nc3ncc4c(n3n2)CCC4)cc1
814 | Cc1cccc(-c2nc(-c3ccc(-n4ccnc4)nc3)no2)c1
976 | Cc1cc(C)cc(NC(=O)C2CCN(S(C)(=O)=O)c3ccccc3O2)c1 (stereo not drawn)
674 | CC1CCCCN1S(=O)(=O)c1ccc2nc(N3CCN(c4ccccn4)CC3)ccc2c1 (stereo not drawn)
974 | O=S(=O)(c1ccccc1)N1CCOc2ccccc21
976 | Cn1nc(C(F)(F)F)cc1C(=O)N1CCCC1c1cccc(F)c1 (stereo not drawn)
577 | OCC1CN(c2ncccn2)CC12CCN(Cc1ccc3[nH]ccc3c1)CC2 (stereo not drawn)
885 | FC(F)(F)c1nc(N2CCN(Cc3ccccc3)CC2)nc2c1CCCCC2
863 | CCC(NC(=O)C1CCN(c2nnc(-c3ccc(OC)cc3)o2)CC1)c1cccs1 (stereo not drawn)
923 | Cc1noc(-c2cccc(OC3CN(C(=O)Nc4cccc(F)c4)C3)c2)n1
887 | O=c1n(Cc2cccc(Br)c2)nc2c(S(=O)(=O)N3CCCC3)cccn12
844 | CC(CCc1ccccc1)NC(=O)c1cc2n(n1)CC(C)(C(=O)NC1CCCC1)N(C)C2=O (stereo not drawn)
691 | CN(C)CCCNC(=O)C1CCN(c2nc3ccc(-c4cccc(F)c4)nc3s2)CC1
676 | CN(CC(=O)N1CCCCC1)S(=O)(=O)c1ccc2c(c1)CCCC(=O)N2
